According to patent US11000033B2, “Ketone or oxime compound, and herbicide” (NISSAN CHEMICAL CORPORATION, priority 2014, dated 2021):

Columns and labels:
Assay type in all cases: in vivo
[1] = system: Echinochloa oryzacola Vasing.; assay: Test Example 1: herbicidal activity, application before weed generation in submerged conditions (symbol A); details: application herbicide amount 320 g/ha
Summary of the method: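 Weed control was rated three weeks after treatment on a 0–5 scale, from 5% or lower up to 90% or more. Pre-emergence water-surface application of diluted emulsion at a predetermined rate was made on the day of sowing, in flooded (4 cm water) pots containing rice seedlings, kept at 25–30 °C under glass.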

transplanted rice plant = assay: Test Example 1: effect on crop, application before weed generation in submerged conditions (symbol a); details: application herbicide amount 320 g/ha
Summary of the method: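 Rice at 2.5 leaf stage transplanted into submerged soil (4 cm depth) sown with three weed species; herbicide applied before weed emergence.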

Monochoria vaginalis = assay: Test Example 2: herbicidal activity, application during weed generation in submerged conditions (symbol C); details: Table 23; application herbicide amount 320 g/ha; grade 0-5 by criteria of Test Example 1
Summary of the method: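 Visual herbicidal ratings, taken three weeks after dosing, reflect post-emergence water-surface application to seedlings at one to two leaves. Conditions: co-sown weeds in alluvial soil flooded to 4 cm, greenhouse held at 25° C. to 30° C.; compound given as water-diluted emulsion at a fixed herbicide amount.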

Digitaria ciliaris = assay: Test Example 4: herbicidal effect by soil treatment (symbol F)
Summary of the method: (§1)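 Seeds were sown in sterilized diluvial soil, covered with about 1.5 cm of soil, and the soil surface was sprayed with a water-diluted emulsion of the compound at a predetermined rate. Plants grew in a greenhouse at 25° C. to 30° C.; effects were scored visually 3 weeks after application.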

[2] = system: Echinochloa crus-galli var. crus-galli; assay: Test Example 4: herbicidal effect by soil treatment (symbol H)
Summary of the method: as §1

Avena fatua = assay: Test Example 4: herbicidal effect by soil treatment (symbol I)
Summary of the method: as §1

Lolium multiflorum Lam. [3] = assay: Test Example 4: herbicidal effect by soil treatment (symbol K)
Summary of the method: as §1

Apera spica-venti [4] = assay: Test Example 4: herbicidal effect by soil treatment (symbol L)
Summary of the method: as §1

Chenopodium album = assay: Test Example 4: herbicidal effect by soil treatment (symbol O)
Summary of the method: as §1

Stellaria media [5] = assay: Test Example 4: herbicidal effect by soil treatment (symbol P)
Summary of the method: as §1

Veronica persica = assay: Test Example 4: herbicidal effect by soil treatment (symbol R)
Summary of the method: as §1

soybean = assay: Test Example 4: effect on crop by soil treatment (symbol d); details: for d: soybean, effect on crop grade: application herbicide amount 320 g/ha; for d: soybean, effect grade on crop: 320 g/ha
Summary of the method: (§2)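 Plants grew in a 25° C. to 30° C. greenhouse after spot-sowing of seeds, including beet, rapeseed, wheat and rice, into sterilized diluvial soil under roughly 1.5 cm of cover soil.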

rice = assay: Test Example 4: effect on crop by soil treatment (symbol b); details: for b: directly sowed rice plant, effect on crop grade: application herbicide amount 320 g/ha; for b: directly sowed rice plant, effect grade on crop: 320 g/ha
Summary of the method: as §2

rapeseed = assay: Test Example 4: effect on crop by soil treatment (symbol g); details: for g: rapeseed, effect on crop grade: application herbicide amount 320 g/ha; for g: rapeseed, effect grade on crop: 320 g/ha
Summary of the method: as §2

[6] = system: Echinochloa crus-galli var. crus-galli; assay: Test Example 5: herbicidal effect by foliage application, plastic box (symbol H); details: 320 g/ha, 3 weeks after application
Summary of the method: (§3)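 Post-emergence spray; diluvial soil (sterilized), ~1.5 cm seed cover; greenhouse 25–30° C; 14-day-old plants; water-diluted emulsion at predetermined dose; visual score at 3 wk post-treatment.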

Lolium multiflorum Lam. [7] = assay: Test Example 5: herbicidal effect by foliage application, plastic box (symbol K); details: 320 g/ha, 3 weeks after application
Summary of the method: as §3

Apera spica-venti [8] = assay: Test Example 5: herbicidal effect by foliage application, plastic box (symbol L); details: 320 g/ha, 3 weeks after application
Summary of the method: as §3

Stellaria media [9] = assay: Test Example 5: herbicidal effect by foliage application, plastic box (symbol P); details: 320 g/ha, 3 weeks after application
Summary of the method: as §3

[10] = application herbicide amount 320 g/ha

SMILES: C=CC(=O)CC1CC(O)=C(c2c(C)cc(C)cc2C)C1=O (stereo not drawn) [2-031]
- Herbicidal effect grade, A: Echinochloa oryzacola Vasing. [1]: 4 (Herbicidal ratio of 70% or higher and lower than 90%)
- Effect grade on crop, a: transplanted rice plant (transplanted rice plant): 5 (Herbicidal ratio of 90% or more (almost completely withered))
- Herbicidal effect grade, C: Monochoria vaginalis (Monochoria vaginalis): 0 (Herbicidal ratio of 5% or lower (almost no effect))
- F: Digitaria ciliaris, herbicidal effect grade (Digitaria ciliaris; [10]): 5 (Herbicidal ratio of 90% or more (almost completely withered))
- H: Echinochloa crus-galli var. crus-galli, herbicidal effect grade [2, 10]: 5 (Herbicidal ratio of 90% or more (almost completely withered))
- I: Avena fatua, herbicidal effect grade (Avena fatua; [10]): 0 (Herbicidal ratio of 5% or lower (almost no effect))
- K: Lolium multiflorum Lam., herbicidal effect grade (Lolium multiflorum Lam. [3]; [10]): 5 (Herbicidal ratio of 90% or more (almost completely withered))
- L: Apera spica-venti, herbicidal effect grade (Apera spica-venti [4]; [10]): 2 (Herbicidal ratio of 20% or higher and lower than 40%)
- O: Chenopodium album, herbicidal effect grade (Chenopodium album; [10]): 0 (Herbicidal ratio of 5% or lower (almost no effect))
- P: Stellaria media, herbicidal effect grade (Stellaria media [5]; [10]): 0 (Herbicidal ratio of 5% or lower (almost no effect))
- R: Veronica persica, herbicidal effect grade (Veronica persica; [10]): 0 (Herbicidal ratio of 5% or lower (almost no effect))
- d: soybean, effect on crop grade (soybean): 0 (Herbicidal ratio of 5% or lower (almost no effect))
- b: directly sowed rice plant, effect on crop grade (rice): 5 (Herbicidal ratio of 90% or more (almost completely withered))
- g: rapeseed, effect on crop grade (rapeseed): 3 (Herbicidal ratio of 40% or higher and lower than 70%)
- H: Echinochloa crus-galli var. crus-galli, herbicidal effect grade [6]: 5 (Herbicidal ratio of 90% or more (almost completely withered))
- K: Lolium multiflorum Lam., herbicidal effect grade (Lolium multiflorum Lam. [7]): 5 (Herbicidal ratio of 90% or more (almost completely withered))
- L: Apera spica-venti, herbicidal effect grade (Apera spica-venti [8]): 4 (Herbicidal ratio of 70% or higher and lower than 90%)
- P: Stellaria media, herbicidal effect grade (Stellaria media [9]): 0 (Herbicidal ratio of 5% or lower (almost no effect))

SMILES: CON=C(C)CC1CC(OC(=O)OCc2ccccc2)=C(c2c(C)cc(C)cc2C)C1=O (stereo not drawn) [1-145]
- Herbicidal effect grade, A: Echinochloa oryzacola Vasing. [1]: 5 (Herbicidal ratio of 90% or more (almost completely withered))
- Effect grade on crop, a: transplanted rice plant (transplanted rice plant): 5 (Herbicidal ratio of 90% or more (almost completely withered))
- Herbicidal effect grade, C: Monochoria vaginalis (Monochoria vaginalis): 3 (Herbicidal ratio of 40% or higher and lower than 70%)
- F: Digitaria ciliaris, herbicidal effect grade (Digitaria ciliaris; 320 g/ha): 5 (Herbicidal ratio of 90% or more (almost completely withered))
- H: Echinochloa crus-galli var. crus-galli, herbicidal effect grade ([2]; 320 g/ha): 5 (Herbicidal ratio of 90% or more (almost completely withered))
- I: Avena fatua, herbicidal effect grade (Avena fatua; 320 g/ha): 4 (Herbicidal ratio of 70% or higher and lower than 90%)
- K: Lolium multiflorum Lam., herbicidal effect grade (Lolium multiflorum Lam. [3]; 320 g/ha): 5 (Herbicidal ratio of 90% or more (almost completely withered))
- L: Apera spica-venti, herbicidal effect grade (Apera spica-venti [4]; 320 g/ha): 5 (Herbicidal ratio of 90% or more (almost completely withered))
- O: Chenopodium album, herbicidal effect grade (Chenopodium album; 320 g/ha): 0 (Herbicidal ratio of 5% or lower (almost no effect))
- P: Stellaria media, herbicidal effect grade (Stellaria media [5]; 320 g/ha): 3 (Herbicidal ratio of 40% or higher and lower than 70%)
- R: Veronica persica, herbicidal effect grade (Veronica persica; 320 g/ha): 3 (Herbicidal ratio of 40% or higher and lower than 70%)
- d: soybean, effect grade on crop (soybean): 0 (Herbicidal ratio of 5% or lower (almost no effect))
- b: directly sowed rice plant, effect grade on crop (rice): 5 (Herbicidal ratio of 90% or more (almost completely withered))
- g: rapeseed, effect grade on crop (rapeseed): 4 (Herbicidal ratio of 70% or higher and lower than 90%)
- H: Echinochloa crus-galli var. crus-galli, herbicidal effect (criteria 0-5) [6]: 5 (Herbicidal ratio of 90% or more (almost completely withered))
- K: Lolium multiflorum Lam., herbicidal effect (criteria 0-5) (Lolium multiflorum Lam. [7]): 5 (Herbicidal ratio of 90% or more (almost completely withered))
- L: Apera spica-venti, herbicidal effect (criteria 0-5) (Apera spica-venti [8]): 5 (Herbicidal ratio of 90% or more (almost completely withered))
- P: Stellaria media, herbicidal effect (criteria 0-5) (Stellaria media [9]): 2 (Herbicidal ratio of 20% or higher and lower than 40%)

SMILES: C=CCOC(=O)OC1=C(c2c(C)cc(C)cc2C)C(=O)C(CC(C)=NOC)C1 (stereo not drawn) [1-146]
- Herbicidal effect grade, A: Echinochloa oryzacola Vasing. [1]: 5 (Herbicidal ratio of 90% or more (almost completely withered))
- Effect grade on crop, a: transplanted rice plant (transplanted rice plant): 5 (Herbicidal ratio of 90% or more (almost completely withered))
- Herbicidal effect grade, C: Monochoria vaginalis (Monochoria vaginalis): 4 (Herbicidal ratio of 70% or higher and lower than 90%)
- F: Digitaria ciliaris, herbicidal effect grade (Digitaria ciliaris; 320 g/ha): 5 (Herbicidal ratio of 90% or more (almost completely withered))
- H: Echinochloa crus-galli var. crus-galli, herbicidal effect grade ([2]; 320 g/ha): 5 (Herbicidal ratio of 90% or more (almost completely withered))
- I: Avena fatua, herbicidal effect grade (Avena fatua; 320 g/ha): 4 (Herbicidal ratio of 70% or higher and lower than 90%)
- K: Lolium multiflorum Lam., herbicidal effect grade (Lolium multiflorum Lam. [3]; 320 g/ha): 5 (Herbicidal ratio of 90% or more (almost completely withered))
- L: Apera spica-venti, herbicidal effect grade (Apera spica-venti [4]; 320 g/ha): 5 (Herbicidal ratio of 90% or more (almost completely withered))
- O: Chenopodium album, herbicidal effect grade (Chenopodium album; 320 g/ha): 0 (Herbicidal ratio of 5% or lower (almost no effect))
- P: Stellaria media, herbicidal effect grade (Stellaria media [5]; 320 g/ha): 1 (Herbicidal ratio of 5% or higher and lower than 20%)
- R: Veronica persica, herbicidal effect grade (Veronica persica; 320 g/ha): 5 (Herbicidal ratio of 90% or more (almost completely withered))
- d: soybean, effect grade on crop (soybean): 0 (Herbicidal ratio of 5% or lower (almost no effect))
- b: directly sowed rice plant, effect grade on crop (rice): 5 (Herbicidal ratio of 90% or more (almost completely withered))
- g: rapeseed, effect grade on crop (rapeseed): 5 (Herbicidal ratio of 90% or more (almost completely withered))
- H: Echinochloa crus-galli var. crus-galli, herbicidal effect (criteria 0-5) [6]: 5 (Herbicidal ratio of 90% or more (almost completely withered))
- K: Lolium multiflorum Lam., herbicidal effect (criteria 0-5) (Lolium multiflorum Lam. [7]): 5 (Herbicidal ratio of 90% or more (almost completely withered))
- L: Apera spica-venti, herbicidal effect (criteria 0-5) (Apera spica-venti [8]): 5 (Herbicidal ratio of 90% or more (almost completely withered))
- P: Stellaria media, herbicidal effect (criteria 0-5) (Stellaria media [9]): 3 (Herbicidal ratio of 40% or higher and lower than 70%)

SMILES: CON=C(C)CC1CC(O)=C(c2c(C)cc(C)cc2Br)C1=O (stereo not drawn) [6-038]
- Herbicidal effect grade, A: Echinochloa oryzacola Vasing. [1]: 5 (Herbicidal ratio of 90% or more (almost completely withered))
- Effect grade on crop, a: transplanted rice plant (transplanted rice plant): 5 (Herbicidal ratio of 90% or more (almost completely withered))
- Herbicidal effect grade, C: Monochoria vaginalis (Monochoria vaginalis): 1 (Herbicidal ratio of 5% or higher and lower than 20%)
- F: Digitaria ciliaris, herbicidal effect grade (Digitaria ciliaris; [10]): 5 (Herbicidal ratio of 90% or more (almost completely withered))
- H: Echinochloa crus-galli var. crus-galli, herbicidal effect grade [2, 10]: 5 (Herbicidal ratio of 90% or more (almost completely withered))
- I: Avena fatua, herbicidal effect grade (Avena fatua; [10]): 2 (Herbicidal ratio of 20% or higher and lower than 40%)
- K: Lolium multiflorum Lam., herbicidal effect grade (Lolium multiflorum Lam. [3]; [10]): 5 (Herbicidal ratio of 90% or more (almost completely withered))
- L: Apera spica-venti, herbicidal effect grade (Apera spica-venti [4]; [10]): 5 (Herbicidal ratio of 90% or more (almost completely withered))
- O: Chenopodium album, herbicidal effect grade (Chenopodium album; [10]): 0 (Herbicidal ratio of 5% or lower (almost no effect))
- P: Stellaria media, herbicidal effect grade (Stellaria media [5]; [10]): 0 (Herbicidal ratio of 5% or lower (almost no effect))
- R: Veronica persica, herbicidal effect grade (Veronica persica; [10]): 1 (Herbicidal ratio of 5% or higher and lower than 20%)
- d: soybean, effect on crop grade (soybean): 1 (Herbicidal ratio of 5% or higher and lower than 20%)
- b: directly sowed rice plant, effect on crop grade (rice): 5 (Herbicidal ratio of 90% or more (almost completely withered))
- g: rapeseed, effect on crop grade (rapeseed): 5 (Herbicidal ratio of 90% or more (almost completely withered))
- H: Echinochloa crus-galli var. crus-galli, herbicidal effect grade [6]: 5 (Herbicidal ratio of 90% or more (almost completely withered))
- K: Lolium multiflorum Lam., herbicidal effect grade (Lolium multiflorum Lam. [7]): 5 (Herbicidal ratio of 90% or more (almost completely withered))
- L: Apera spica-venti, herbicidal effect grade (Apera spica-venti [8]): 5 (Herbicidal ratio of 90% or more (almost completely withered))
- P: Stellaria media, herbicidal effect grade (Stellaria media [9]): 4 (Herbicidal ratio of 70% or higher and lower than 90%)
